Test results published in patent US4424220A, “Treatment of giardiasis and trichomoniasis” (priority 1982, dated 1984).
Converted amounts (≈) assume the structure as drawn. Where two headings read alike, the source gives them in different places.

Assays:
[1] = cited from earlier work
Giardia lamblia [2] = conditions: humans; background, The New York Times, June 10, 1980; cited from earlier work
T. foetus = experiment: In vitro anti-Trichomonas foetus activity (50% inhibition of growth); format: cell-based, Trichomonas foetus KV1; conditions: for IC50: Tritrichomonas foetus, read-out: Anti-T. foetus ED50
Protocol: The activity of these compounds against Giardia lamblia and Trichomonas foetus are shown by the following test:
(§1) About 1.0-2.0 ml of a nutrient medium, for example, the modified Diamond's TPS medium at pH 7.05, together with about 10% by volume of heat-inactiviated serum and about 1% by volume of antibiotic-antimycotic solution is placed in each well of a multiwell plate. To this mixture, an aliquot of a suspension of G. lamblia cells containing about 10^6 organisms is added. Subsequently, each well is inoculated with a known concentration of one of the active compounds. The multiwell plate containing the individual culture samples is incubated under anaerobic conditions at about 37° C. for about 16-24 hrs. The number of viable cells remaining in each well are then counted, such as with a hemacytometer. The percentage of survival is determined by comparison with controls inoculated with DMSO (dimethylsulfoxide) and the effective concentration (in parts per million) for 50% inhibition of growth (ED50) is determined. It is established that the lower the number of the value of ED50, the higher the activity of the active compound.
(§2) In each well of a multiwell plate is placed 1.4 ml of media mix containing Diamond's TPS medium (see Table 2) at pH 7.05, 10% by volume of heat-inactivated fetal bovine serum, and 1% by volume of an antibiotic-antimycotic solution (see Table 3). A suspension of Giardia lamblia is centrifuged at 2,500 xg. for 6 minutes. The cells are resuspended in a small volume of the Diamond's medium, counted, and each well inoculated with approximately 10^6 organisms. A stock solution of fluorouracil is made at a concentration of 150 μg/ml. The wells are then inoculated with various concentrations of the drug. The plates are incubated for 24 hours at 37° C. in an anaerobic Gas Pak jar. After 24 hours of incubation each well is mixed and counted for viable organisms using a hemacytometer. The percentage of survival is determined by comparing the treated wells to controls treated with dimethylsulfoxide. […]

Giardia lamblia [3] = experiment: In vitro anti-Giardia lamblia activity (viable organisms counted by hemacytometer, 50% inhibition of growth); format: cell-based; conditions: Giardia duodenalis, read-out: Anti-G. lamblia ED50
Protocol: as §1, with “The percentage of survival is determined by comparison with controls inoculated with DMSO (dimethylsulfoxide) and the effective concentration (in parts per million) for 50% inhibition of growth (ED50) is determined. It is established that the lower the number of the value of ED50, the higher the activity of the active compound.” left out
as §2, with “A suspension of Giardia lamblia is centrifuged at 2,500 xg. for 6 minutes.” left out, “A stock solution of fluorouracil is made at a concentration of 150 μg/ml. The wells are then inoculated with various concentrations of the drug. The plates are incubated for 24 hours at 37° C. in an anaerobic Gas Pak jar.” left out

T. vaginalis = experiment: Anti-T. vaginalis activity; format: cell-based, Trichomonas vaginalis; conditions: procedure of Example 2; refers to Table 1

In the case of O=C1OCCN1N=Cc1ccc([N+](=O)[O-])o1 [furazolidione], the adverse side effects ([1]; humans, background, The New York Times, June 10, 1980) is listed as “known to cause adverse side effects” and the “treatment of giardiasis infection” value (Giardia lamblia [2]) is listed as “successfully treated”.

In the case of Cc1ncc([N+](=O)[O-])n1CCO [Flagyl, metronidazole], the adverse side effects ([1]; in vivo) is given as “known to cause adverse side effects” and the “treatment of giardiasis infection” value (Giardia lamblia [2]) is given as “successfully treated”.

For CCN(CC)CCCC(C)Nc1c2ccc(Cl)cc2nc2ccc(OC)cc12 (stereo not drawn) [Atabrine], the adverse side effects ([1]; in vivo) is given as “known to cause adverse side effects” and the “treatment of giardiasis infection” value (Giardia lamblia [2]) is given as “successfully treated”.

With O=c1[nH]cc(F)c(=O)[nH]1 [fluorouracil, 5-fluoro-2,4-(1H,3H)pyrimidenedione] the IC50 (T. foetus; 24 h) was 3 µg/mL (≈ 23.1 µM), the “anti-T. foetus activity (in words)” value (T. foetus; in vitro, T. foetus KV1, 37° C., 24 hours) was “effective anti-T. foetus agent” and the IC50 (Giardia lamblia [3]) was 100 µg/mL (≈ 769 µM).

In the case of [O-][n+]1ccnc(O)c1 [emimycin, 2-hydroxypyrazine-4-oxide], the IC50 (T. foetus; in vitro, 50% inhibition of growth, T. foetus KV1 in Example 2, 37° C., 24 hours) is reported as under 1 µg/mL, the “anti-T. vaginalis activity (in words)” value (T. vaginalis) is reported as “active anti-T. vaginalis agents” and the IC50 (Giardia lamblia [3]; in vitro, effective concentration for 50% inhibition of growth, about 10^6 organisms per well, 37° C., anaerobic, 16-24 hrs (Example 1: 24 hours), controls with DMSO) is reported as 22 µg/mL (≈ 196 µM).
